The source of these data is ChEMBL document CHEMBL1201862, “PubChem BioAssay data set” (2004).

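Step 1: Grow cells in 96-well plates. Step 2: Expose to compound for 48 hours at 5 concentrations. Step 3: Interpolate endpoints linearly; if unreached, use highest concentration. GI50 marks 50% less growth.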 The source made the active and inactive calls. No stated cut-off is given here; in the data, active = GI50 up to about 1.1 µM and inactive = higher. Some results are limits rather than exact numbers.

Test systems include MOLT-4; HOP-62; SF-539; RPMI-8226; HCC 2998; HCT-116; NCI-H23; SN12C; SF-268; IGROV-1; HCT-15; NCI-H226; NCI-H460; A549; UACC-62; K562; KM12; CAKI-1; A498; CCRF-CEM.
Holding throughout (assay): inhibition of tumour cell growth, NCI panel, 48 h

Turning to `O=C(N/C=C1\C(=O)Oc2ccccc2C1=O)NC1CCCCC1`, the GI50 in the experiment on MOLT-4 was 62.7 µM (inactive); with HOP-62, 68.4 µM (inactive); in the experiment on SF-539, > 100 µM (inactive); in the experiment with RPMI-8226, > 100 µM (inactive); in the experiment with HCC 2998, > 100 µM (inactive); in the experiment on HCT-116, 78.5 µM (inactive). Moreover, the GI50 with NCI-H23 was 69 µM (inactive); in the experiment on SN12C, 39.7 µM (inactive); in the experiment on SF-268, 41.2 µM (inactive); in the experiment on IGROV-1 it was 56.5 µM (inactive); in the experiment with HCT-15, 37.3 µM; in the experiment with NCI-H226 it was 41.1 µM (inactive). In addition, the GI50 in the experiment with NCI-H460 is > 100 µM (inactive); in the experiment on A549, > 100 µM (inactive); in the experiment with UACC-62 it was 28 µM (inactive).
Regarding `CCOC(=O)[C@H]1Nc2ccc(Cl)cc2[C@H]2c3ccccc3O[C@H]21`, the GI50 was > 100 µM (inactive) in the experiment with MOLT-4; 56.5 µM (inactive) with K562; > 100 µM (inactive) in the experiment with HOP-62; > 100 µM (inactive) with SF-539; 93.5 µM (inactive) in the experiment on KM12; > 100 µM (inactive) with CAKI-1. Further, the GI50 is 45.5 µM (inactive) with RPMI-8226; > 100 µM (inactive) in the experiment on HCC 2998; > 100 µM (inactive) in the experiment on HCT-116; > 10 µM (inactive) with NCI-H23; > 100 µM (inactive) in the experiment with SN12C; > 100 µM (inactive) in the experiment on SF-268. Further, the GI50 in the experiment with IGROV-1 was > 100 µM (inactive); in the experiment with HCT-15, 16.4 µM; in the experiment with NCI-H226 it was > 100 µM (inactive); with NCI-H460, > 100 µM (inactive); in the experiment with A549, 79.4 µM (inactive); in the experiment on UACC-62, 41.8 µM (inactive).
With `CCOC(=O)c1ccc(Nc2nc3cc(C(F)(F)F)ccc3nc2C(=O)OCC)cc1`, the GI50 in the experiment on MOLT-4 was > 100 µM (inactive); with K562, 31 µM (inactive); in the experiment with HOP-62, 22 µM (inactive); with SF-539, 50.9 µM (inactive); in the experiment on KM12 it was > 100 µM (inactive); in the experiment with CAKI-1 it was 23.5 µM (inactive). Further, the GI50 with A498 is 36.6 µM (inactive); in the experiment with RPMI-8226, > 100 µM (inactive); in the experiment on CCRF-CEM it was > 100 µM (inactive); with HCC 2998 it was 22.1 µM (inactive); with HCT-116, 34.2 µM (inactive); with NCI-H23, 99.1 µM (inactive). Further, the GI50 in the experiment on SN12C is > 100 µM (inactive); in the experiment on SF-268, 97.1 µM (inactive); with IGROV-1 it was > 100 µM (inactive); in the experiment on HCT-15, greater than 100 µM; in the experiment on NCI-H460 it was 74.3 µM (inactive); in the experiment on A549, 39.6 µM (inactive). Moreover, the GI50 in the experiment with UACC-62 is 66.5 µM (inactive).
Turning to `OC(c1cccnc1Cl)c1nc2ccccc2c2ccnc(Cl)c12` (stereo unspecified), the GI50 was 3.67 µM (inactive) with MOLT-4; 1.4 µM (inactive) with K562; 2.15 µM (inactive) with HOP-62; 3.02 µM (inactive) with SF-539; 2.94 µM (inactive) in the experiment on KM12; 6.25 µM (inactive) in the experiment with CAKI-1. Further, the GI50 in the experiment with A498 was 3.23 µM (inactive); in the experiment with RPMI-8226 it was 2.34 µM (inactive); with HCT-116 it was 3.35 µM (inactive); in the experiment on NCI-H23, 20.5 µM (inactive); with SN12C, 3.6 µM (inactive); with SF-268 it was 6.21 µM (inactive). Further, the GI50 with IGROV-1 was 5.02 µM (inactive); in the experiment on HCT-15, 3.04 µM; with NCI-H460, 4.4 µM (inactive); in the experiment with A549, 7.76 µM (inactive); in the experiment on UACC-62, 2.06 µM (inactive).
For the compound `COc1cc(C2S/C(=C/c3ccccc3)C(=O)N2c2cccc(NC(C)=O)c2)cc(OC)c1OC` (stereo unspecified), the GI50 in the experiment with MOLT-4 is 30.6 µM (inactive); in the experiment with K562, 39.5 µM (inactive); with HOP-62 it was 67 µM (inactive); in the experiment with KM12, 27.2 µM (inactive); in the experiment with CAKI-1, 25.9 µM (inactive); in the experiment on A498 it was 32.5 µM (inactive). Moreover, the GI50 is 40.2 µM (inactive) with CCRF-CEM; 29.6 µM (inactive) in the experiment on HCC 2998; 17.2 µM (inactive) with HCT-116; 38 µM (inactive) with NCI-H23; 45.2 µM (inactive) in the experiment with SN12C; 24.1 µM (inactive) in the experiment on SF-268. For the same compound, the GI50 with HCT-15 is 30.5 µM; in the experiment with NCI-H226, > 100 µM (inactive); in the experiment on A549 it was 39.2 µM (inactive); in the experiment with UACC-62 it was 29.1 µM (inactive).
For the compound `Cc1cc(O)c(C(C)C)cc1SC#N`, the GI50 in the experiment with MOLT-4 is 3.15 µM (inactive); in the experiment on K562, 6.3 µM (inactive); in the experiment with HOP-62, 21 µM (inactive); in the experiment on SF-539 it was 15.6 µM (inactive); in the experiment on KM12 it was 17.6 µM (inactive); in the experiment on CAKI-1, 15 µM (inactive). The GI50 is 17.1 µM (inactive) with A498; 2.16 µM (inactive) in the experiment with RPMI-8226; 3.51 µM (inactive) in the experiment with CCRF-CEM; 17.2 µM (inactive) with HCC 2998; 17.2 µM (inactive) in the experiment on NCI-H23; 19.3 µM (inactive) in the experiment on SF-268. In addition, the GI50 in the experiment on IGROV-1 is 16.9 µM (inactive); in the experiment on HCT-15, 17.3 µM; in the experiment with NCI-H460, 16.4 µM (inactive); with UACC-62, 14.6 µM (inactive).
`c1ccc2c(c1)N=C(NC1CCCCC1)CCN2`: the GI50 with MOLT-4 was 63.2 µM (inactive); in the experiment on K562, 81.3 µM (inactive); in the experiment on HOP-62, > 100 µM (inactive); in the experiment with KM12, > 100 µM (inactive); in the experiment with CAKI-1, > 100 µM (inactive); in the experiment on A498, > 100 µM (inactive). Moreover, the GI50 in the experiment on RPMI-8226, in the experiment on CCRF-CEM, in the experiment on HCT-116, in the experiment on NCI-H23, in the experiment on SN12C and in the experiment on SF-268 was > 100 µM (inactive) each time. Further, the GI50 is 33.1 µM (inactive) in the experiment on IGROV-1; greater than 100 µM in the experiment on HCT-15; > 100 µM (inactive) in the experiment with NCI-H226; > 100 µM (inactive) with NCI-H460; > 100 µM (inactive) in the experiment on A549; > 100 µM (inactive) with UACC-62.
`CN1C[C@H]2[C@@H](C1=O)[C@H](c1ccc([N+](=O)[O-])cc1)ON2C`: the GI50 in the experiment on MOLT-4, in the experiment on K562, in the experiment on HOP-62, in the experiment with CAKI-1, in the experiment on RPMI-8226 and in the experiment on CCRF-CEM was > 100 µM (inactive) in each case. For the same compound, the GI50 in the experiment on HCC 2998 was > 100 µM (inactive); in the experiment on HCT-116, > 100 µM (inactive); in the experiment with NCI-H23 it was > 100 µM (inactive); with SN12C it was > 100 µM (inactive); in the experiment with IGROV-1, > 100 µM (inactive); with HCT-15 it was greater than 100 µM. Further, the GI50 in the experiment with NCI-H226, in the experiment with NCI-H460 and in the experiment on A549 was > 100 µM (inactive) each time.
As to `COc1cc(O)c2c(c1)C(=O)c1cc3c(c(O)c1C2=O)C(OC1OC(C)C(O)C(O)C1OC)C(OC)C(C)(O)C3=O` (stereo unspecified), the GI50 in the experiment with HOP-62 was 3.82 µM (inactive); in the experiment with SF-539, 1.85 µM (inactive); in the experiment on A498, 2.04 µM (inactive); with HCC 2998 it was 4.23 µM (inactive); in the experiment with NCI-H23 it was 2.06 µM (inactive); in the experiment with SN12C it was 1.9 µM (inactive). For the same compound, the GI50 was 2.12 µM (inactive) in the experiment with SF-268; 2.52 µM (inactive) with IGROV-1; 2.32 µM in the experiment with HCT-15; 3.48 µM (inactive) in the experiment with NCI-H226; 1.53 µM (inactive) in the experiment on NCI-H460; 3.71 µM (inactive) in the experiment on A549. Further, the GI50 in the experiment on UACC-62 is 1.38 µM (inactive).
As for `O=C(O)C1=C(CO)Oc2cc3c(cc2C1c1ccc2c(c1)OCO2)OCO3` (stereo unspecified), the GI50 in the experiment on MOLT-4, in the experiment with K562, with HOP-62, with SF-539, with CAKI-1 and with RPMI-8226 was > 100 µM (inactive) each time. Further, the GI50 in the experiment with CCRF-CEM was > 100 µM (inactive); with HCT-116 it was > 100 µM (inactive); in the experiment on NCI-H23, > 100 µM (inactive); with SN12C, > 100 µM (inactive); with IGROV-1 it was > 100 µM (inactive); in the experiment with HCT-15, greater than 100 µM. Also, the GI50 with NCI-H460, with A549 and in the experiment with UACC-62 was > 100 µM (inactive) in each case.
For `C=CC1OC(CCCOC(=O)C(C)(C)C)O[C@@H]1CC` (stereo partly specified), the GI50 with MOLT-4, with HOP-62, with SF-539, in the experiment with KM12, with CAKI-1 and with A498 was > 100 µM (inactive) in each case. Moreover, the GI50 with RPMI-8226, with CCRF-CEM, with NCI-H23, in the experiment on SN12C, with SF-268 and with IGROV-1 was > 100 µM (inactive) throughout. In addition, the GI50 in the experiment with HCT-15 is greater than 100 µM; in the experiment with NCI-H226 it was > 100 µM (inactive); with NCI-H460, 37.2 µM (inactive); in the experiment on A549 it was > 100 µM (inactive); with UACC-62 it was > 100 µM (inactive).
Take `CCN1c2ccccc2NC(=S)c2c(-c3ccccc3)n[nH]c21`: the GI50 in the experiment on MOLT-4 was 17 µM (inactive); in the experiment on K562, 17.6 µM (inactive); in the experiment with SF-539 it was 39.4 µM (inactive); with KM12, 31.7 µM (inactive); in the experiment with CAKI-1, 52.8 µM (inactive); in the experiment on RPMI-8226, 16.1 µM (inactive). Further, the GI50 with CCRF-CEM was 18.3 µM (inactive); in the experiment on HCC 2998, 3.99 µM (inactive); in the experiment on HCT-116, 33.2 µM (inactive); in the experiment on NCI-H23 it was 26.5 µM (inactive); in the experiment on SN12C it was 43.5 µM (inactive); in the experiment on SF-268 it was 27.4 µM (inactive). Besides, the GI50 with IGROV-1 was 34.1 µM (inactive); in the experiment on HCT-15, 23 µM; in the experiment with NCI-H460, 28.6 µM (inactive); in the experiment with A549, 24.8 µM (inactive); with UACC-62 it was 27.3 µM (inactive).
